Assay results from US20040151761A1, “Methods and compositions utilizing astaxanthin” (priority 2003, published 2004).
“Also recorded” adds a separate entry of the source.

Assays:
[1] = system: IgG and IgM; test: Plasma IgG and IgM in cats (ELISA); type: in vivo, cat
Method: Female domestic short hair cats (8 to 9 months old; 3.2±0.04 kg body weight; Liberty Farms, Waverly, N.Y.) were randomly assigned (n=14/diet) to be fed 0, 1, 5, or 10 mg astaxanthin (109 g astaxanthin/kg oleoresin concentrate from Haematococcus pluvialis, astraZanthin™, La Haye Laboratories, Redmond, Wash.) daily (based on an average intake of 90 g food/day) for 12 weeks. Astaxanthin was incorporated into a commercial basal diet (The Iams Co., Lewisburg, Ohio.) and fed ad libitum. The diet composition was as follows (g/kg): 63.1 moisture, 350.6 protein, 62.7 ash, 213.6 fat, 10.0 Ca, 7.6 P, and 7.1 crude fiber, 21,707 kJ/kg gross energy; the n-6:n-3 fatty acid ratio was 9.9. Cats were housed in a temperature (20 to 22° C.) and light-controlled (14 hour light) facility and body weights were determined at weeks 0, 4, 8 and 12. Blood was collected at week 0 and 8 to assess immune function. To assess the dietary effects of astaxanthin on immune response after an antigenic challenge, all cats were vaccinated (Felocell™, Pfizer, N.Y.) two times (weeks 8 and 10) and blood was collected at week 12 to measure the same immune parameters.
IgG and IgM. Plasma concentrations of IgG (sheep anti-IgG; sensitivity=16 μg/L) and IgM (goat anti-IgM; sensitivity=31 μg/L) were analyzed by ELISA using a commercial kit (Bethyl Lab., Inc., Montgomery, Tex.).

[2] = Absorption of astaxanthin and distribution to blood leukocytes and HDL in dogs; type: in vivo, dog
[3] = Plasma astaxanthin in dogs fed astaxanthin diets; type: in vivo, dog
Method: Female Beagle dogs (9 to 10 mo old; 8.2±0.2 kg body weight; Covance Research Products Inc., Kalamazoo, Mich.) were randomly assigned (n=14/treatment) to be fed 0, 10, 20, or 40 mg astaxanthin (109 g astaxanthin/kg oleoresin concentrate from Haematococcus pluvialis, astraZanthin™, La Haye Laboratories, Redmond, Wash.) daily for 16 weeks. Astaxanthin was incorporated into a commercial basal diet (The Iams Co., Lewisburg, Ohio.) and fed two times daily (200 g food/d). The diet composition was as follows (g/kg): 85.3 moisture, 275.8 protein, 60.7 ash, 115.0 fat, 9.9 Ca, 9.3 P, 21.3 crude fiber, and 18,914 kJ/kg gross energy; the n-6:n-3 fatty acid ratio was 7.9. Dogs were housed in 2×3 m pens (2 dogs/pen) in a temperature (20 to 22° C.) and light-(14 hour light) controlled facility. Body weight was recorded on week 0, 4, 8, and 16. Blood was collected on wk 0, 6 and 12 for assessing immune function. All dogs were vaccinated (Vanguard 5™, Smithkline Beacham, West Chester, Pa.) twice on week 12 and 14 and blood again taken on week 16 to assess post-vaccination immune responses.

[4] = system: total T, Th, Tc, MHC II and CD21 lymphocyte populations; test: Leukocyte subsets in cats by flow cytometry; type: in vivo, cat; settings: by weeks 8 and 12, generally dose-dependent
[5] = system: peripheral blood mononuclear cell (PBMC); test: Lymphoproliferation in cats (whole blood); type: in vivo, cat
Method: Lymphoproliferation. Mitogen-induced peripheral blood mononuclear cell (PBMC) proliferation was assessed by incubating whole blood in the presence of PHA (0.25 and 1.25 mg/L final concentration), con A (0.5 and 2.5 mg/L), and pokeweed mitogen (PWM; 0.025 and 0.125 mg/L) as previously described (Chew et al., 2000). Whole blood was used in order to simulate in vivo conditions. Results are reported as stimulation index (cpm of mitogen-stimulated÷cpm of unstimulated cultures).

[6] = Absorption of astaxanthin and distribution to blood leukocytes and HDL in cats; type: in vivo, cat
[7] = system: CD3, CD4, CD8, MHC II and CD21 lymphocyte subpopulations; test: Leukocyte subsets in dogs by flow cytometry; type: in vivo, dog
Source text: Leukocyte subset. Subpopulations of CD3 (total T), CD4 (Th), CD8 (Tc), MHC II (activated lymphocytes), and CD21 (mature B cells) were quantitated by flow cytometry on week 0, 6, 12 and 16 (Chew et al., 2000).

[8] = system: total T, Th, Tc, MHC II and CD21 lymphocyte populations; test: Leukocyte subsets in cats by flow cytometry; type: in vivo, cat
Source text: Leukocyte subset. Blood collected at week 0, 8 and 12 was phenotyped for populations of CD3 (total T), CD4 (Th), CD8 (Tc), MHC II (activated lymphocytes), and CD21 (mature B cells) by flow cytometry (FACSCalibur, Becton Dickenson, San Jose, Calif.) as previously described (Chew et al., 2000).

[9] = Hematology in dogs; type: in vivo, dog; settings: throughout the study
Method: Hematology. Complete blood count (white blood cell, RBC and platelet counts, lymphocyte, monocyte and granulocyte differential counts, hematocrit, hemoglobin, and mean corpuscular volume, hemoglobin and hemoglobin concentration, and platelet volume) was performed on a hematology analyzer (Vet ABC-Hematology Analyzer, Heska, Fort Collins, Colo.) using EDTA-treated blood.

[10] = system: 8-Hydroxy-2′-deoxyguanosine (8-OHdG); test: Oxidative damage to DNA in dogs (plasma 8-OHdG ELISA); type: in vivo, dog
Method: Oxidative damage to DNA. 8-Hydroxy-2′-deoxyguanosine (8-OHdG) was measured in plasma ELISA (BIOXYTECHTM™ 8-OHhdG-EIA Kit, OxisResearch, Portland, Oreg.; sensitivity=0.5 micrograms/L).

[11] = system: lipid peroxidation; test: Lipid peroxidation in dogs; type: in vivo, dog
[12] = post-vaccination week 12, 10 mg

SMILES: CC1=C(/C=C/C(C)=C/C=C/C(C)=C/C=C/C=C(C)/C=C/C=C(C)/C=C/C2=C(C)C(=O)C(O)CC2(C)C)C(C)(C)CC(O)C1=O (stereo not drawn) [astaxanthin, 3,3′-dihydroxy-beta, beta-carotene-4,4′-dione]
- plasma IgG concentration ([1]; post-vaccination week 12, 5 mg): only those fed 5 mg astaxanthin were significant
- plasma IgM concentration ([1]; post-vaccination week 12, 5 mg): only those fed 5 mg astaxanthin were significant
- plasma IgG concentration [1, 12]: still numerically higher
- plasma IgM concentration [1, 12]: still numerically higher
- plasma IgG concentration ([1]; week 8, 10 mg): higher
- plasma IgM concentration ([1]; week 8, 10 mg): higher
- lipoprotein association of circulating astaxanthin ([2]; dogs): associated with high-density lipoprotein (HDL)
- absorption of dietary astaxanthin ([2]; domestic dogs): able to absorb dietary astaxanthin
- uptake by blood and blood leukocytes (sub-cellular organelles) ([2]; domestic dogs fed astaxanthin): significant uptake by the blood and by all sub-cellular organelles of blood leukocytes; also recorded: significantly absorbed by blood leukocytes
- time at which maximal blood concentrations were observed ([3]; all supplemented dogs): ≤ 6 wk
- plasma astaxanthin concentration ([3]; supplemented dogs, through week 16): increased in a dose-dependent manner
- population of CD5+ total T cells [4]: increased the populations; also recorded: increase in the populations of total T and Th lymphocytes
- proliferative response to ConA ([5]; 1 mg, post-vaccination week 12): higher proliferative response
- proliferative response to PHA ([5]; 1 mg, post-vaccination week 12): higher proliferative response
- proliferative response to PWM ([5]; 1 mg, post-vaccination week 12): higher proliferative response
- mitogen-induced PBMC proliferation ([5]; by week 8): did not influence
- lipoprotein association of circulating astaxanthin ([6]; cats): associated with high-density lipoprotein (HDL)
- absorption of dietary astaxanthin ([6]; domestic cats): able to absorb dietary astaxanthin
- uptake by blood and blood leukocytes (sub-cellular organelles) ([6]; domestic cats fed astaxanthin): significant uptake by the blood and by all sub-cellular organelles of blood leukocytes; also recorded: significantly absorbed by blood leukocytes
- population of B cells ([7]; 20 mg, post-vaccination week 16): showed the highest response; also recorded: highest B cell subpopulation
- CD4 population ([7]; any time period): did not effect changes
- CD8 population ([7]; any time period): did not effect changes
- MHC class II population ([7]; any time period): did not effect changes
- CD3 population ([7]; dogs fed 30 mg): transient decrease in the CD3 population
- population of B cells ([7]; week 6 and 12, dose-dependent): generally increased the population of B cells
- CD8+ T cytotoxic (Tc) cells averaged ([8]; average over diets): 4.7±0.4
- MHC class II population averaged ([8]; average over diets, in % (unit assumed)): 94.1±1.0
- population of CD4+ T helper (Th) cells ([8]; by weeks 8 and 12, generally dose-dependent): increased the populations; also recorded: increase in the populations of total T and Th lymphocytes
- MHC class II population ([8]; in vivo): did not influence
- distribution of CD8+ T cytotoxic (Tc) cells ([8]; in vivo): did not influence
- population of B cells ([8]; in vivo): decreased the population of B cells; also recorded: decrease in the B cell population
- blood hematology [9]: generally showed no dietary effects
- plasma 8-OHdG concentrations ([10]; dogs fed 40 mg versus lower doses): no further decrease
- plasma 8-OHdG production ([10]; supplemented dogs, as with C-reactive protein (post-vaccination)): inhibited the production of 8-OHdG
- plasma 8-OHdG concentration ([10]; wk 12): no dietary influence
- lipid peroxidation [11]: reduced lipid peroxidation
